Experimental data published in PubChem BioAssay AID1963871 (Molecular Pharmacology Branch, DTP, NCI, 2024).

Tested on: KRAS-mutant PDC multicell tumor spheroid viability
Experiment: Anticancer human tumor 521955-158-R2-J5-PDC patient-derived pancreatic carcinoma cell line growth inhibition [KRAS2]
Settings: for IC50: curve of first compound; for viability, T/C: stronger effect = lower value
Procedure, shortened: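 Combination screen of spheroid viability in tumor-cell co-cultures with endothelial (HUVEC) and mesenchymal stem cell stroma. Each agent was tested in half-log dilutions, topping at clinical Cmax or at 10 microM without a known Cmax.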
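Also: viability read after seven days of drug exposure.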

CC(C)n1nc(-c2ccc3oc(N)nc3c2)c2c(N)ncnc21 + COc1cc2nc(C)nc(NC(C)c3cc(N)cc(C(F)(F)F)c3)c2cc1OC1CCOC1
IC50 (second compound 0.1 µM): 9.15 nM | IC50 (second compound 0.316 µM): 7.73 nM | IC50 (second compound 1 µM): 6.55 nM | IC50 (second compound 3.16 µM): 4.41 nM | IC50 (second compound 10 µM): 0.453 nM | viability, T/C (second compound 0.1 µM, first compound 0.000316 µM): 61.5% | viability, T/C (second compound 0.1 µM, first compound 0.001 µM): 83.8% | viability, T/C (second compound 0.1 µM, first compound 0.00316 µM): 64.1% | viability, T/C (second compound 0.1 µM, first compound 0.01 µM): 48.5% | viability, T/C (second compound 0.1 µM, first compound 0.0316 µM): 32.6% | viability, T/C (second compound 0.1 µM, first compound 0.1 µM): 26% | viability, T/C (second compound 0.316 µM, first compound 0.000316 µM): 90.1% | viability, T/C (second compound 0.316 µM, first compound 0.001 µM): 83.9% | viability, T/C (second compound 0.316 µM, first compound 0.00316 µM): 65.4% | viability, T/C (second compound 0.316 µM, first compound 0.01 µM): 44.8% | viability, T/C (second compound 0.316 µM, first compound 0.0316 µM): 33.7% | viability, T/C (second compound 0.316 µM, first compound 0.1 µM): 25.6% | viability, T/C (second compound 1 µM, first compound 0.000316 µM): 81% | viability, T/C (second compound 1 µM, first compound 0.001 µM): 77.1% | viability, T/C (second compound 1 µM, first compound 0.00316 µM): 57.1% | viability, T/C (second compound 1 µM, first compound 0.01 µM): 46.8% | viability, T/C (second compound 1 µM, first compound 0.0316 µM): 29.6% | viability, T/C (second compound 1 µM, first compound 0.1 µM): 25.1% | viability, T/C (second compound 3.16 µM, first compound 0.000316 µM): 84.2% | viability, T/C (second compound 3.16 µM, first compound 0.001 µM): 80.6% | viability, T/C (second compound 3.16 µM, first compound 0.00316 µM): 53.7% | viability, T/C (second compound 3.16 µM, first compound 0.01 µM): 35.8% | viability, T/C (second compound 3.16 µM, first compound 0.0316 µM): 27.4% | viability, T/C (second compound 3.16 µM, first compound 0.1 µM): 20.2% | viability, T/C (second compound 10 µM, first compound 0.000316 µM): 56.9% | viability, T/C (second compound 10 µM, first compound 0.001 µM): 32.4% | viability, T/C (second compound 10 µM, first compound 0.00316 µM): 34.7% | viability, T/C (second compound 10 µM, first compound 0.01 µM): 26.1% | viability, T/C (second compound 10 µM, first compound 0.0316 µM): 21.6% | viability, T/C (second compound 10 µM, first compound 0.1 µM): 19%
